In the NIST ThermoML archive (doi:10.1021/je900596d):
± gives the expanded uncertainty stated by the source.

Conditions: for mass density: Vibrating tube method; for vapor or sublimation pressure: Closed cell (Static) method

FC(F)=C(F)C(F)(F)F [hexafluoropropene]
Conditions | mass density [kg/m3]
303.36 K, 1884.5 kPa, Liquid | 1299.72 ± 1.3
303.36 K, 1906.2 kPa, Liquid | 1300.05 ± 1.3
303.36 K, 1950 kPa, Liquid | 1300.59 ± 1.3
303.36 K, 1985.6 kPa, Liquid | 1301.03 ± 1.3
303.36 K, 2016.6 kPa, Liquid | 1301.15 ± 1.3
303.36 K, 2051.2 kPa, Liquid | 1301.63 ± 1.3
303.36 K, 2084.4 kPa, Liquid | 1301.95 ± 1.3
303.36 K, 2119.1 kPa, Liquid | 1302.35 ± 1.3
303.36 K, 2170.3 kPa, Liquid | 1302.96 ± 1.3
303.36 K, 2204.1 kPa, Liquid | 1303.24 ± 1.3
303.36 K, 2239.2 kPa, Liquid | 1303.63 ± 1.3
303.36 K, 2326 kPa, Liquid | 1304.46 ± 1.3
303.36 K, 2359.9 kPa, Liquid | 1304.86 ± 1.3
303.36 K, 2392.6 kPa, Liquid | 1305.27 ± 1.3
303.36 K, 2427 kPa, Liquid | 1305.54 ± 1.3
303.36 K, 2445.1 kPa, Liquid | 1305.96 ± 1.3
303.36 K, 2496.7 kPa, Liquid | 1306.19 ± 1.3
303.36 K, 2513.8 kPa, Liquid | 1306.54 ± 1.3
303.36 K, 2546.9 kPa, Liquid | 1306.82 ± 1.3
303.36 K, 2585.2 kPa, Liquid | 1307.14 ± 1.3
303.36 K, 2621.3 kPa, Liquid | 1307.6 ± 1.3
303.36 K, 2688.6 kPa, Liquid | 1308.11 ± 1.3
303.36 K, 2773.2 kPa, Liquid | 1309.07 ± 1.3
303.36 K, 2808 kPa, Liquid | 1309.41 ± 1.3
303.36 K, 2842.3 kPa, Liquid | 1309.71 ± 1.3
303.36 K, 2874.3 kPa, Liquid | 1310.03 ± 1.3
303.36 K, 2907.2 kPa, Liquid | 1310.3 ± 1.3
303.36 K, 2940.3 kPa, Liquid | 1310.77 ± 1.3
303.36 K, 3022.9 kPa, Liquid | 1311.53 ± 1.3
303.36 K, 3048.7 kPa, Liquid | 1311.84 ± 1.4
303.36 K, 3100.9 kPa, Liquid | 1312.32 ± 1.4
303.36 K, 3125.6 kPa, Liquid | 1312.63 ± 1.3
303.36 K, 3150.3 kPa, Liquid | 1312.98 ± 1.4
303.36 K, 3176.4 kPa, Liquid | 1313.02 ± 1.4
303.36 K, 3201.4 kPa, Liquid | 1313.32 ± 1.4
303.36 K, 3226.8 kPa, Liquid | 1313.58 ± 1.3
303.36 K, 3276.7 kPa, Liquid | 1313.98 ± 1.3
303.36 K, 3325.1 kPa, Liquid | 1314.49 ± 1.3
303.36 K, 3349.9 kPa, Liquid | 1314.75 ± 1.3
303.36 K, 3375.9 kPa, Liquid | 1314.91 ± 1.3
303.36 K, 3401.4 kPa, Liquid | 1315.17 ± 1.3
303.36 K, 3428.7 kPa, Liquid | 1315.55 ± 1.4
303.36 K, 3457.9 kPa, Liquid | 1315.79 ± 1.4
303.36 K, 3482.4 kPa, Liquid | 1315.97 ± 1.3
303.36 K, 3532.9 kPa, Liquid | 1316.48 ± 1.3
303.36 K, 3636.8 kPa, Liquid | 1317.48 ± 1.3
303.36 K, 3692 kPa, Liquid | 1318.07 ± 1.3
303.36 K, 3744.5 kPa, Liquid | 1318.56 ± 1.4
303.36 K, 3799.6 kPa, Liquid | 1319.05 ± 1.4
303.36 K, 3852.6 kPa, Liquid | 1319.41 ± 1.4
303.36 K, 3906.9 kPa, Liquid | 1319.99 ± 1.4
303.36 K, 3959.3 kPa, Liquid | 1320.51 ± 1.4
303.36 K, 4068.1 kPa, Liquid | 1321.53 ± 1.4
303.36 K, 4117.4 kPa, Liquid | 1322.06 ± 1.4
303.36 K, 4226.8 kPa, Liquid | 1323.01 ± 1.4
303.36 K, 4279 kPa, Liquid | 1323.53 ± 1.4
303.36 K, 4384.9 kPa, Liquid | 1324.43 ± 1.4
303.36 K, 4442 kPa, Liquid | 1324.86 ± 1.4
303.36 K, 4491.1 kPa, Liquid | 1325.26 ± 1.4
303.36 K, 4545.1 kPa, Liquid | 1325.86 ± 1.4
303.36 K, 4652.9 kPa, Liquid | 1326.85 ± 1.4
303.36 K, 4706.2 kPa, Liquid | 1327.25 ± 1.4
303.36 K, 4761.9 kPa, Liquid | 1327.67 ± 1.4
303.36 K, 4810.6 kPa, Liquid | 1328.19 ± 1.4
303.36 K, 4861.8 kPa, Liquid | 1328.62 ± 1.4
303.36 K, 4913.7 kPa, Liquid | 1329.12 ± 1.4
303.36 K, 4970 kPa, Liquid | 1329.46 ± 1.4
303.36 K, 5017 kPa, Liquid | 1329.84 ± 1.4
303.36 K, 5088.1 kPa, Liquid | 1330.55 ± 1.4
303.36 K, 5216.5 kPa, Liquid | 1331.6 ± 1.4
303.36 K, 5343.2 kPa, Liquid | 1332.68 ± 1.4
303.36 K, 5408.2 kPa, Liquid | 1333.2 ± 1.4
303.36 K, 5478.7 kPa, Liquid | 1333.8 ± 1.4
303.36 K, 5540.7 kPa, Liquid | 1334.24 ± 1.4
303.36 K, 5605.9 kPa, Liquid | 1334.94 ± 1.4
303.36 K, 5666.1 kPa, Liquid | 1335.34 ± 1.4
303.36 K, 5731.3 kPa, Liquid | 1335.77 ± 1.4
303.36 K, 5921.6 kPa, Liquid | 1337.37 ± 1.4
303.36 K, 5981.8 kPa, Liquid | 1337.85 ± 1.4
303.36 K, 6042.7 kPa, Liquid | 1338.34 ± 1.4
303.36 K, 6104.9 kPa, Liquid | 1338.9 ± 1.4
303.36 K, 6169.9 kPa, Liquid | 1339.47 ± 1.4
303.36 K, 6232.2 kPa, Liquid | 1339.84 ± 1.4
303.36 K, 6297.1 kPa, Liquid | 1340.49 ± 1.4
303.36 K, 6362 kPa, Liquid | 1340.92 ± 1.4
303.36 K, 6487 kPa, Liquid | 1341.93 ± 1.4
303.36 K, 6549.6 kPa, Liquid | 1342.5 ± 1.4
303.36 K, 6613.9 kPa, Liquid | 1342.92 ± 1.4
303.36 K, 6678.1 kPa, Liquid | 1343.42 ± 1.4
303.36 K, 6742 kPa, Liquid | 1343.99 ± 1.4
303.36 K, 6802.7 kPa, Liquid | 1344.44 ± 1.4
303.36 K, 6864.7 kPa, Liquid | 1344.88 ± 1.4
303.36 K, 6928 kPa, Liquid | 1345.36 ± 1.4
303.36 K, 7053.8 kPa, Liquid | 1346.25 ± 1.4
303.36 K, 7120.4 kPa, Liquid | 1346.76 ± 1.4
303.36 K, 7184.3 kPa, Liquid | 1347.25 ± 1.4
303.36 K, 7245.2 kPa, Liquid | 1347.73 ± 1.4
303.36 K, 7308.5 kPa, Liquid | 1348.26 ± 1.4
303.36 K, 7370.8 kPa, Liquid | 1348.64 ± 1.4
303.36 K, 7436.1 kPa, Liquid | 1349.17 ± 1.4
303.36 K, 7499.7 kPa, Liquid | 1349.66 ± 1.4
303.36 K, 7563.6 kPa, Liquid | 1350.15 ± 1.4
303.36 K, 7689.6 kPa, Liquid | 1351.05 ± 1.4
303.36 K, 7751.3 kPa, Liquid | 1351.45 ± 1.4
303.36 K, 7812.7 kPa, Liquid | 1351.9 ± 1.4
303.36 K, 7879.7 kPa, Liquid | 1352.39 ± 1.4
303.36 K, 7943 kPa, Liquid | 1352.95 ± 1.4
303.36 K, 8005.8 kPa, Liquid | 1353.4 ± 1.4
303.36 K, 8100.6 kPa, Liquid | 1353.99 ± 1.4
303.36 K, 8290.6 kPa, Liquid | 1355.42 ± 1.4
303.36 K, 8481.2 kPa, Liquid | 1356.76 ± 1.4
303.36 K, 8578.2 kPa, Liquid | 1357.54 ± 1.4
303.36 K, 8675.5 kPa, Liquid | 1358.15 ± 1.4
303.36 K, 8768.5 kPa, Liquid | 1358.79 ± 1.4
303.36 K, 8868.4 kPa, Liquid | 1359.47 ± 1.4
303.36 K, 8967.8 kPa, Liquid | 1360.24 ± 1.4
303.36 K, 9068.6 kPa, Liquid | 1360.85 ± 1.4
303.36 K, 9168.1 kPa, Liquid | 1361.57 ± 1.4
303.36 K, 9265.9 kPa, Liquid | 1362.22 ± 1.4
303.36 K, 9367 kPa, Liquid | 1362.91 ± 1.4
303.36 K, 9568.1 kPa, Liquid | 1364.22 ± 1.4
303.36 K, 9667.3 kPa, Liquid | 1364.9 ± 1.4
303.36 K, 9768.6 kPa, Liquid | 1365.55 ± 1.4
303.36 K, 9865.8 kPa, Liquid | 1366.04 ± 1.4
303.36 K, 9961.4 kPa, Liquid | 1366.81 ± 1.4
303.36 K, 9992.6 kPa, Liquid | 1366.98 ± 1.5
323.21 K, 7 kPa, Fluid (supercritical or subcritical phases) | 0.29 ± 0.03
323.21 K, 10.8 kPa, Fluid (supercritical or subcritical phases) | 0.58 ± 0.03
323.21 K, 14.3 kPa, Fluid (supercritical or subcritical phases) | 0.86 ± 0.03

Liquid
Conditions | vapor or sublimation pressure [kPa]
308.21 K | 963.4 ± 2
313.21 K | 1099.9 ± 2.2
318.22 K | 1250.6 ± 2.4
323.2 K | 1413.5 ± 2.6
